In ChEMBL document CHEMBL3045653, “A novel amino acid substitution Ala-122-Tyr in ALS confers high-level and broad resistance across ALS-inhibiting herbicides” (Pest Manag Sci, 2012):
The source made the active and inactive calls. No cut-off for these calls is given here.

How the values were obtained:
Raphanus raphanistrum [1] = experiment: Herbicidal activity against two to three-leaf stage ALS-herbicide-susceptible Raphanus raphanistrum WARR7 (wild radish) assessed as reduction in survival at 0.75 g/ha measured 3 weeks after compound treatment; assay type: functional; conditions: WARR7, 504 h, read-out: GI
Raphanus raphanistrum [2] = experiment: Resistance index, ratio of LD50 for ALS-herbicide-resistant Raphanus raphanistrum WARR30 (wild radish) expressing ALS Ala122Tyr mutant to LD50 for ALS-herbicide-susceptible Raphanus raphanistrum (wild radish) WARR7; assay type: functional
Raphanus raphanistrum [3] = experiment: Resistance index, ratio of I50 for ALS Ala122Tyr mutant in ALS-herbicide-resistant Raphanus raphanistrum WARR30 (wild radish) expressing ALS Ala122Tyr mutant to I50 for ALS-herbicide-susceptible Raphanus raphanistrum (wild radish)
Raphanus raphanistrum [4] = experiment: Herbicidal activity against two to three leaf stage ALS-herbicide-susceptible Raphanus raphanistrum WARR7 (wild radish) assessed as reduction in survival measured 3 weeks after compound treatment; assay type: functional
Raphanus raphanistrum [5] = experiment: Herbicidal activity against two to three leaf stage ALS-herbicide-resistant Raphanus raphanistrum WARR30 (wild radish) expressing ALS Ala122Tyr mutant assessed as reduction in dry weight of above-ground biomass measured 3 weeks after compound treatment; assay type: functional
Raphanus raphanistrum [6] = experiment: Herbicidal activity against two to three leaf stage ALS-herbicide-susceptible Raphanus raphanistrum WARR7 (wild radish) assessed as reduction in dry weight of above-ground biomass measured 3 weeks after compound treatment; assay type: functional
Acetolactate synthase [7] = molecular target: Acetolactate synthase (Raphanus raphanistrum, UniProt J7HAW4, A122Y); experiment: Inhibition of ALS Ala122Tyr mutant in ALS-herbicide-resistant Raphanus raphanistrum WARR30 (wild radish) expressing ALS Ala122Tyr mutant; conditions: read-out: I50
Acetolactate synthase [8] = molecular target: T1, Acetolactate synthase (Raphanus raphanistrum, UniProt J7HAW4); experiment: Inhibition of ALS in ALS-herbicide-susceptible Raphanus raphanistrum […] (wild radish); conditions: pooled result: one value given for 2 cell lines, strains, targets or settings; read-out: I50
T1 sequence (J7HAW4 whole entry): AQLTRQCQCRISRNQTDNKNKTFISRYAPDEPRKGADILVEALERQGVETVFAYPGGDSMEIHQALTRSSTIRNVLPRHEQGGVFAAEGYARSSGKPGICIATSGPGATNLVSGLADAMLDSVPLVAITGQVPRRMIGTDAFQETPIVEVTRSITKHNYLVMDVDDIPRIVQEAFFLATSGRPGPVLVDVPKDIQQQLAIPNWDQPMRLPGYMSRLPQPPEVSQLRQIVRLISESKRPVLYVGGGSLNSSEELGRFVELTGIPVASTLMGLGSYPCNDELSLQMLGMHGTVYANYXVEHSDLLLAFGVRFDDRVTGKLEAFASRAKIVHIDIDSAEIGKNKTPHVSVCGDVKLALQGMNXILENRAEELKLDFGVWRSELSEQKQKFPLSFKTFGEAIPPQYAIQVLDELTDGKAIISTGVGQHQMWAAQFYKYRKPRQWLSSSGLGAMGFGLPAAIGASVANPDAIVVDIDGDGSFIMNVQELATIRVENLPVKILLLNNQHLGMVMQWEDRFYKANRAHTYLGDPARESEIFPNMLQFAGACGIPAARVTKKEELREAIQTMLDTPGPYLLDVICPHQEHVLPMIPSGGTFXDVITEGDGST

Raphanus raphanistrum [9] = experiment: Herbicidal activity against two to three-leaf stage ALS-herbicide-resistant Raphanus raphanistrum WARR30 (wild radish) expressing ALS Ala122Tyr mutant assessed as reduction in survival at 384 g/ha measured 3 weeks after compound treatment; assay type: functional; conditions: WARR30, 504 h, read-out: GI
Raphanus raphanistrum [10] = experiment: Herbicidal activity against two to three leaf stage ALS-herbicide-resistant Raphanus raphanistrum WARR30 (wild radish) expressing ALS Ala122Tyr mutant assessed as reduction in survival measured 3 weeks after compound treatment; assay type: functional
Raphanus raphanistrum [11] = experiment: Resistance index, ratio of GR50 for ALS-herbicide-resistant Raphanus raphanistrum WARR30 (wild radish) expressing ALS Ala122Tyr mutant to GR50 for ALS-herbicide-susceptible Raphanus raphanistrum (wild radish) WARR7; assay type: functional
Raphanus raphanistrum [12] = experiment: Herbicidal activity against two to three-leaf stage ALS-herbicide-susceptible Raphanus raphanistrum WARR7 (wild radish) assessed as reduction in survival at 50 g/ha measured 3 weeks after compound treatment; assay type: functional, organism-based
Raphanus raphanistrum [13] = experiment: Herbicidal activity against two to three-leaf stage ALS-herbicide-resistant Raphanus raphanistrum WARR30 (wild radish) expressing ALS Ala122Tyr mutant assessed as reduction in survival at 20 g/ha measured 3 weeks after compound treatment; assay type: functional; conditions: WARR30, 504 h, read-out: GI
Raphanus raphanistrum [14] = experiment: Herbicidal activity against two to three-leaf stage ALS-herbicide-susceptible Raphanus raphanistrum WARR7 (wild radish) assessed as reduction in survival at 0.625 g/ha measured 3 weeks after compound treatment; assay type: functional; conditions: WARR7, 504 h, read-out: GI
Raphanus raphanistrum [15] = experiment: Herbicidal activity against two to three-leaf stage ALS-herbicide-resistant Raphanus raphanistrum WARR30 (wild radish) expressing ALS Ala122Tyr mutant assessed as reduction in survival at 640 g/ha measured 3 weeks after compound treatment; assay type: functional, organism-based
Raphanus raphanistrum [16] = experiment: Herbicidal activity against two to three-leaf stage ALS-herbicide-resistant Raphanus raphanistrum WARR30 (wild radish) expressing ALS Ala122Tyr mutant assessed as reduction in survival at 1600 g/ha measured 3 weeks after compound treatment; assay type: functional; conditions: WARR30, 504 h, read-out: GI
Raphanus raphanistrum [17] = experiment: Herbicidal activity against two to three-leaf stage ALS-herbicide-susceptible Raphanus raphanistrum WARR7 (wild radish) assessed as reduction in survival at 62 g/ha measured 3 weeks after compound treatment; assay type: functional, organism-based

| SMILES | Ratio (Raphanus raphanistrum [2]) | Ratio (Raphanus raphanistrum [3]) | LD50 (Raphanus raphanistrum [4]) [g/ha] | GR50 (Raphanus raphanistrum [5]) [g/ha] | GR50 (Raphanus raphanistrum [6]) [g/ha] | IC50 (Acetolactate synthase [7]) [µM] | IC50 (Acetolactate synthase [8]) [µM] | LD50 (Raphanus raphanistrum [10]) [g/ha] | Ratio (Raphanus raphanistrum [11]) | Activity (Raphanus raphanistrum [4]) | Activity (Raphanus raphanistrum [5]) | Activity (Raphanus raphanistrum [6]) | Activity (Raphanus raphanistrum [10]) | further results |
| --- | --- | --- | --- | --- | --- | --- | --- | --- | --- | --- | --- | --- | --- | --- |
| COc1cc(OC)n2nc(S(=O)(=O)Nc3c(Cl)ccc(C)c3Cl)nc2n1 [METOSULAM] | >512 | > 94500 | <0.75 | >384 | <0.75 | 94 | < 0.001 | >384 | >512 | – | – | – | – | inhibition of growth at 0.75 g/ha (Raphanus raphanistrum [1]): 95%; inhibition of growth at 384 g/ha (Raphanus raphanistrum [9]): 10% |
| CC(C)C1(C)N=C(c2ncccc2C(=O)O)NC1=O (centres undefined) [IMAZAPYR] | >16 | > 14.6 | <63 | 486 | <63 | > 100 | 6.84 | 1000 | >7.8 | – | – | – | – | Activity (Raphanus raphanistrum [12]): Active |
| COc1nc(C)nc(NC(=O)NS(=O)(=O)c2ccccc2Cl)n1 [CHLORSULFURON] | – | – | <0.625 | >640 | <0.625 | – | – | >640 | – | – | – | – | – | inhibition of growth at 20 g/ha (Raphanus raphanistrum [13]): 15%; inhibition of growth at 0.625 g/ha (Raphanus raphanistrum [14]): 72%; Activity (Raphanus raphanistrum [15]): inactive |
| COCc1cnc(C2=NC(C)(C(C)C)C(=O)N2)c(C(=O)O)c1 (centres undefined) [IMAZAMOX] | >137 | > 21 | 11.7 | >1600 | <6.3 | > 100 | 4.78 | >1600 | >256 | – | – | – | – | inhibition of growth at 1600 g/ha (Raphanus raphanistrum [16]): 20%; Activity (Raphanus raphanistrum [17]): Active |
| Cc1cc(C)nc(NC(=O)NS(=O)(=O)c2ccccc2C(=O)O)n1 [SULFOMETURON] | – | > 4350 | – | – | – | > 100 | – | – | – | Active | inactive | Active | inactive | – |
| CCc1cnc(C2=NC(C)(C(C)C)C(=O)N2)c(C(=O)O)c1 (centres undefined) [IMAZETHAPYR] | – | > 741 | – | – | – | > 1000 | 1.35 | – | – | Active | inactive | Active | inactive | – |
| Cc1ccn2nc(S(=O)(=O)Nc3c(F)cccc3F)nc2n1 | – | > 60 | – | – | – | > 100 | 1.66 | – | – | Active | inactive | Active | inactive | – |
